biological target: T1, PLA2 (Homo sapiens, UniProt P14555); test: PLA2 Inhibition Assay (14C-oleate labeled E. coli membrane substrate); assay type: biochemical; conditions: 100 μM (sic, Table 6); PLA2 from human platelets; pH 7, 37° C.
T1 construct: The enzyme is isolated from human platelets; from tissue; host or cells: human platelets
T1 sequence (P14555 21-144): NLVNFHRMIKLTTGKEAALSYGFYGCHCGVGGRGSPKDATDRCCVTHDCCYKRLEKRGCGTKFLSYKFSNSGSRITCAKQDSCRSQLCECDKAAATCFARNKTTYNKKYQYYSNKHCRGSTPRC
Description: The method used is similar to that reported by Franson, et al. [Jesse, R. L. and Franson R. C., Biochim. Biophys. Acta 575: 467-470 (1979); Franson, R. C., Patriarca, P., and Elsback, P., J. Lipid Res. 15: 380-388 (1974)]. The enzyme is isolated from human platelets. The substrate used consists of ^14 C-oleate labeled Escherichia coli membranes. E. coli cells are grown in the presence of ^14 C-oleic acid and then autoclaved to prepare the membranes.
Various concentrations of test compounds are preincubated with PLA2 (3.6 mg/mL in a buffer consisting of 25 mM HEPES (pH 7)), 150 mM NaCl, 5.0 mM CaCl2, and 10% DMSO (v/v, test compound solvent) at 37° C. for 7 minutes. The E. coli substrate is then added (0.1 mM phospholipid, 0,005 mCi ^14 C) and the reaction is then incubated at 37° C. for 30 minutes. The reaction is then terminated by the addition of 1.9 mL tetrahydrofuran (THF), and the entire solution is applied to a solid-phase extraction column (aminopropyl resin, Analytichem). The column is rinsed with an additional 1 mL of THF. The free fatty acid product of the reaction is then eluted from the column with 1 mL 2% acetic acid in THF and collected in a scintillation vial. The amount of free fatty acid product is determined by liquid scintillation counting. The amount of inhibition produced by the test compound is calculated by comparing the counts obtained in the presence of the compound to those obtained in its absence (solvent only). Background counts were determined by performing incubations in the absence of enzyme.
Percent inhibition is determined by the equation: [formula]

Compared with `CC1(C)CCC(C)(C)c2cc(COc3ccccc3-c3cccc(C(=O)O)c3)ccc21` [Structure 52a, 2-[5,6,7,8-tetrahydro-5,5,8,8-tetramethyl-2-naphthalenyl]methoxy-[1,1'-biphenyl]-3'-carboxylic acid], `CC1(C)CCC(C)(C)c2cc(COc3ccccc3-c3cccc(CC(=O)O)c3)ccc21` [Structure 57, 2-[5,6,7,8-tetrahydro-5,5,8,8-tetramethyl-2-naphthalenyl]methoxy-[1,1'-biphenyl]-3'-acetic acid] is higher in “% Inhibition of PLA2 at 100 .infin.M” value: 83% for the first, 92% for the second.

Going from `CC1(C)CCC(C)(C)c2cc(COc3ccccc3-c3ccc(C(=O)O)cc3)ccc21` [Structure 52b, 2-[5,6,7,8-tetrahydro-5,5,8,8-tetramethyl-2-naphthalenyl]methoxy-[1,1'-biphenyl]-4'-carboxylic acid] to `CC1(C)CCC(C)(C)c2cc(COc3ccccc3-c3ccccc3C(=O)O)ccc21` [Structure 52c, 2-[5,6,7,8-tetrahydro-5,5,8,8-tetramethyl-2-naphthalenyl]methoxy-[1,1'-biphenyl]-2'-carboxylic acid], the “% Inhibition of PLA2 at 100 .infin.M” value rises from 66% to 72%.

same assay, conditions: 100 μM; PLA2 from human platelets; pH 7, 37° C.

Compared with `O=C(O)Cc1cccc(OCc2ccc(OC3CCCC3)c(OC3CCCC3)c2)c1-c1cccc(C(=O)O)c1` [Structure 30b, 2-[(3,4-biscyclopentyloxy)phenyl]methoxy-3'-carboxy-[1,1'-biphenyl]-6-acetic acid], `O=C(O)CCc1cccc(OCc2ccc(OC3CCCC3)c(OC3CCCC3)c2)c1-c1cccc(C(=O)O)c1` [Structure 37b, 2-[3,4-bis(cyclopentyloxy)phenyl]methoxy-3'-carboxy-[1,1'-biphenyl]-6-propanoic acid] is lower in inhibition at 100 µM: 79% for the first, 51% for the second.

Going from `CC1(C)CCC(C)(C)c2cc(COc3cccc(C(=O)O)c3-c3cccc(C(=O)O)c3)ccc21` [Structure 14m, 2-(5,6,7,8-tetrahydro-5,5,8,8-tetramethyl-2-naphthalenyl)methoxy-[1,1'-biphenyl]-6,3'-dicarboxylic acid] to `CC1(C)CCC(C)(C)c2cc(COc3cccc(C(=O)O)c3-c3cccc(CC(=O)O)c3)ccc21` [Structure 14q, 6-carboxy-2-[5,6,7,8-tetrahydro-5,5,8,8-tetramethyl-2-naphthalenyl]methoxy-[1,1'-biphenyl]-3'-acetic acid], the inhibition at 100 µM rises from 54% to 72%.

Compared with `COc1cc(COc2cccc(C(=O)O)c2-c2cccc(C(=O)O)c2)ccc1C12CC3CC(CC(C3)C1)C2` [Structure 14h, 2-[4-(1-adamantyl)-3-methoxyphenyl]methoxy-[1,1,-biphenyl]-6,3'-dicarboxylic acid], `COc1cc(COc2cccc(CC(=O)O)c2-c2cccc(C(=O)O)c2)ccc1C12CC3CC(CC(C3)C1)C2` [Structure 30d, 3'-carboxy-2-[4-(1-adamantyl)-3-methoxyphenyl]methoxy-[1,1'-biphenyl]-6-acetic acid] is higher in inhibition at 100 µM: 62% for the first, 97% for the second.

Compared with `O=C(O)c1cccc(-c2c(OCc3ccc(OC4CCCC4)c(OC4CCCC4)c3)cccc2C(=O)O)c1` [Structure 14d, 2-[(3,4-biscyclopentyloxy)phenyl]methoxy-[1,1 'biphenyl]-6,3'-dicarboxylic acid], `CCOC(=O)c1cccc(-c2c(OCc3ccc4c(c3)C(C)(C)CCC4(C)C)cccc2C(=O)O)c1` [Structure 14l, 2-(5,6,7,8-tetrahydro-5,5,8,8-tetramethyl-2-naphthalenyl)methoxy-[1,1'-biphenyl]-6,3'-dicarboxylic acid, 3'-ethyl ester] is lower in inhibition at 100 µM: 73% for the first, 54% for the second.

`CCCCCCCCCCOc1ccc(COc2cccc(CC(=O)O)c2-c2cccc(C(=O)O)c2)cc1` [Structure 30c, 3'-carboxy-2-[4-decyloxyphenyl]methoxy-[1,1'-biphenyl]-6-acetic acid] and `CCCCCCCCCCOc1ccc(COc2cccc(C(=O)O)c2-c2ccccc2)cc1` [Structure 14k, 2-[(4-decyloxy)phenyl]methoxy-[1,1'-biphenyl]-6-carboxylic acid] are the same in inhibition at 100 µM: 99% for the first, 99% for the second.

Compared with `CC1(C)CCC(C)(C)c2cc3cc(-c4cccc(CC(=O)O)c4-c4cccc(C(=O)O)c4)ccc3cc21` [Structure 28c, 3'-carboxy-2-[(1,2,3,4-tetrahydro-1,1,4,4-tetramethyl)-6-anthracenyl]-[1,1'-biphenyl]-6-acetic acid], `CC1(C)CCC(C)(C)c2cc(COc3cccc(CC(=O)O)c3-c3cccc(C(=O)O)c3)ccc21` [Structure 30f, 3'-carboxy-2-(5,6,7,8-tetrahydro-5,5,8,8-tetramethyl-2-naphthalenyl)methoxy-[1,1'-biphenyl]-6-acetic acid] is lower in inhibition at 100 µM: 93% for the first, 80% for the second.

Going from `C/C(=C\c1cccc(C(=O)O)c1-c1cccc(C(=O)O)c1)c1ccc2c(c1)C(C)(C)CCC2(C)C` [Structure 11, (E)-[2-(5,6,7,8-tetrahydro-5,5,8,8-tetramethyl-2-naphthalenyl)-1-propenyl]-[1,1'-biphenyl]-6,3'-dicarboxylic acid] to `CC1(C)CCC(C)(C)c2cc(COc3cccc(/C=C/C(=O)O)c3-c3cccc(C(=O)O)c3)ccc21` [Structure 39d, 3'-carboxy-2-[5,6,7,8-tetrahydo-5,5,8,8-tetramethyl-2-naphthalenyl]methoxy-[1,1'-biphenyl]-6-[(E)-3-propenoic acid]], the inhibition at 100 µM falls from 80% to 72%.

Going from `CC1(C)CCC(C)(C)c2cc(COc3cccc(CC(=O)O)c3-c3ccccc3)ccc21` [Structure 30e, 2-(5,6,7,8-tetrahydro-5,5,8,8-tetramethyl-2-naphthalenyl)methoxy-[1,1'-biphenyl]-6-acetic acid] to `CC1(C)CCC(C)(C)c2cc(COc3ccc(C(=O)O)cc3-c3ccccc3)ccc21` [Structure 44, 2-[5,6,7,8-tetrahydro-5,5,8,8-tetramethyl-2-naphthalenyl]methoxy-[1,1'-biphenyl]-5-carboxylic acid], the inhibition at 100 µM rises from 59% to 70%.

First: CC(C)=CCOc1ccc(COc2cccc(CCC(=O)O)c2-c2cccc(C(=O)O)c2)cc1OCC=C(C)C [Structure 37a, 2-[3,4-bis(3-methyl-2-butenyloxy)phenyl]methoxy-3'-carboxy-[1,1'-biphenyl]-6-propanoic acid]
Second: CCCCCOc1ccc(COc2cccc(CCC(=O)O)c2-c2cccc(C(=O)O)c2)cc1OCCCCC [Structure 37c, 2-[3,4-bis (pentyloxy)phenyl]methoxy-3'-carboxy-[1,1'-biphenyl]-6-propanoic acid]
The inhibition at 100 µM of the first is lower: 55% for the first, 59% for the second.

First: CCCCCOc1ccc(COc2cccc(C(=O)O)c2-c2ccccc2)cc1OCCCCC [Structure 14i, 2-[(3,4-bispentyloxy)phenyl]methoxy-[1,1'-biphenyl]-6-carboxylic acid]
Second: CCCCCOc1ccc(COc2cccc(C(=O)O)c2-c2cccc(C(F)(F)F)c2)cc1OCCCCC [Structure 14j, 2-[(3,4-bispentyloxy)phenyl]methoxy-[1,1'-biphenyl]-3'-trifluoromethyl-6-carboxylic acid]
The inhibition at 100 µM of the first is higher: 99% for the first, 98% for the second.

Going from `CCCCCOc1ccc(COc2cccc(C(=O)O)c2-c2ccccc2)cc1OC(C)=O` [Structure 14f, 2-[(3-acetoxy-4-pentyloxy)phenyl]methoxy-[1,1'-biphenyl]-6-carboxylic acid] to `CCCCCOc1ccc(COc2cccc(C(=O)O)c2-c2ccccc2)cc1O` [Structure 14e, 2-[(3-hydroxy-4-pentyloxy)phenyl]methoxy-[1,1 '-biphenyl]-6-carboxylic acid], the inhibition at 100 µM rises from 30% to 34%.

Compared with `CCCCCCCCCCOc1ccc(COc2cccc(C(=O)O)c2-c2cccc(C(=O)O)c2)cc1OCCCCCCCCCC` [Structure 14a, 2-[(3,4-bisdecyloxy)phenyl]methoxy-[1,1'-biphenyl]-6,3'-dicarboxylic acid], `CCCCCOc1ccc(COc2cccc(/C=C/C(=O)O)c2-c2cccc(C(=O)O)c2)cc1OCCCCC` [Structure 39c] is lower in inhibition at 100 µM: 99% for the first, 59% for the second.

Going from `CC(C)(C)c1ccc(-c2c(OCc3ccc4c(c3)C(C)(C)CCC4(C)C)cccc2C(=O)O)cc1` [Structure 14o, 2-(5,6,7,8-tetrahydro-5,5,8,8-tetramethyl-2-naphthalenyl)methoxy-[1,1'-biphenyl]-4'-(1,1-dimethylethyl)-6-carboxylic acid] to `CC1(C)CCC(C)(C)c2cc(COc3cccc(CCC(=O)O)c3-c3cccc(C(=O)O)c3)ccc21` [Structure 37d, 3'-carboxy-2-[5,6,7,8-tetrahydro-5,5,8,8-tetramethyl-2-naphthalenyl]methoxy-[1,1'-biphenyl]-6-propanoic acid], the inhibition at 100 µM falls from 99% to 54%.

For `COc1cc(COc2cccc(C(=O)O)c2-c2ccccc2)ccc1C12CC3CC(CC(C3)C1)C2` [Structure 14g, 2-[4-(1-adamantyl)-3-methoxyphenyl]methoxy-[1,1'-biphenyl]-6-carboxylicacid], the inhibition at 100 µM was 44%.
